Assay results from patent US5736548A, “6-aryl pyrazolo[3,4-D] pyrimidin-4-ones and compositions and method of use thereof” (Sanofi, priority 1997, dated 1998).
Where “and” joins values, the source holds several entries; their conditions need not be identical. Equal entries are not always repeated. Structures can show the parent of a compound that is named as a salt.

Tests used:
cGMP-PDE V = cGMP-PDE V (Homo sapiens, UniProt O76074); test: biochemical; set-up: species or system various animal species and man; details: for IC50: values separated by / and marked * are separate experimental runs; for inhibition at 0.1 µM / inhibition at 1 µM / inhibition at 0.01 µM / inhibition at 10 µM: read-out: Percent Inhibition cGMP-PDE V
Method: The cGMP-PDE and other PDE isozymes were isolated from cardiovascular tissues (heart and aorta) of various animal species and man by anion-exchange and affinity chromatography as described by Silver et al., Sec. Messeng. Phos. 13:13-25, 1991; PDE activity, in the presence and absence of test compounds was determined essentially as described by Thompson et al., Adv. Cyclic Nucleotide Res. 10:69-92. To determine the potency and selectivity of compounds as PDE inhibitors, compounds are screened for their effect on cyclic nucleotide hydrolysis at 10 μM. […] The IC50 values are calculated from concentration-response curves as described by Tallarida and Murray, Manual of Pharmacologic Calculations with Computer Programs, Procedure 8, Graded Dose-response, pp. 14-19, Springer-Verlag, New York, 1981.

[1] = test system: Spontaneously hypertensive rats (SHR); test: Antihypertensive activity in conscious spontaneously hypertensive rats (mean arterial pressure); format: in vivo; details: Rattus norvegicus, 5 min, SHR iv
Method: After a 2 day recovery from surgery, three baseline blood pressure measurements were made at 5 min intervals in conscious SHR. Compounds to be tested or vehicle were then administered intravenously in a dose-dependent manner (0.3-10 mg base/kg) while arterial pressure was recorded continuously on a polygraph. The mean arterial pressure response was measured 5 minutes after the administration of each dose of the test compound and the next dose given in a cumulative dose fashion. The response to each dose of the test compound was calculated as the difference from the mean of the three baseline measurements.

[2] = test system: nitroglycerin tolerant spontaneously hypertensive rats; test: Reversal of nitroglycerin-induced tolerance in spontaneously hypertensive rats; format: in vivo; details: tolerant rats, vehicle pretreated, nitroglycerin 1-300 μg/kg iv
Method: Spontaneously hypertensive rats (17-25 weeks of age) were made nitroglycerin tolerant by repeated administration of high doses of nitroglycerin (100 mg/kg, s.c., 3 times/day for 3 consecutive days). To confirm tolerance challenge doses of nitroglycerin were administered intravenously at doses ranging from 1-300 μg/kg and the maximum change in mean arterial pressure (MAP) for each dose was recorded. Groups of tolerant rats were pretreated with the compounds of the invention (tolerant pretreated group) or with vehicle (0.05N NaOH) (tolerant vehicle pretreated group) intravenously 5-10 minutes prior to administration of challenge doses of nitroglycerin. The administration of challenge doses of nitroglycerin to non-tolerant rats (the non-tolerant group) caused a dose-dependent decrease in MAP of between 10 to 40 mm Hg. […] The area under the dose-MAP curve was calculated for the non-tolerant group and for the tolerant vehicle pretreated group and the tolerant pretreated group. The percent reversal of nitrate-inducedtolerance was calculated as follows:
Percent Reversal=(AUCtol -pretreated-AUCtol-veh)/(AUCnontol
AUCnontol =the area under the dose-MAP curve for the non-tolerant group.
AUCtol-veh =the area under the dose-MAP curve for the tolerant vehicle pretreated group.
AUCtol-pretreated =the area under the dose-MAP curve for the tolerant pretreated group.
The following table summarizes the results obtained from the testing of representative compounds of the invention.

IC50 (cGMP-PDE V)	inhibition at 0.1 µM (cGMP-PDE V; 0.1 μM)	inhibition at 1 µM (cGMP-PDE V)	Compound	further results
130 nM			CCc1[nH]n(C2CCCC2)c2nc(-c3cccc(-n4ccnc4)c3)nc(=O)c1-2 [24 (c), 1-cyclopentyl-3-ethyl-6-[3-(1-imidazolyl)phenyl]pyrazolo-[3,4-d]pyrimidin-4-one]	ED25 [1]: 12.7 mg/kg; change in vivo at 3 mg/kg ([1]; 3 mg/kg, 5 minutes after dose): -13%; change in vivo at 10 mg/kg ([1]; 5 minutes after dose): -21%
93 nM			CCc1[nH]n(C2CCCC2)c2nc(-c3cccc(OCC(=O)O)c3)nc(=O)c1-2 [Example 21, 1-cyclopentyl-3-ethyl-6-[3-(carboxymethoxy)phenyl]pyrazolo[3,4-d]pyrimidin-4-one]	change in vivo at 10 mg/kg ([1]; 5 minutes after dose): -1%
87 nM			CCc1[nH]n(C2CCCC2)c2nc(-c3ccccc3OC)nc(=O)c1-2 [Example 5, 1-cyclopentyl-3-ethyl-6-(2-methoxyphenyl)-pyrazolo[3,4-d]pyrimidin-4-one]	change in vivo at 1 mg/kg ([1]; 5 minutes after dose): -8%
	31%	73%	CCOc1cc(N(CC)CC)ccc1-c1nc2n(C3CCCC3)[nH]c(CC)c-2c(=O)n1 [37 (b), 1-cyclopentyl-3-ethyl-6-[2-ethoxy-4-(diethylamino)phenyl]pyrazolo[3,4-d]pyrimidin-4-one]	
73 nM			CCc1[nH]n(C2CCCC2)c2nc(-c3cccc(OCCN4CCCCC4)c3)nc(=O)c1-2 [19 (b), 1-cyclopentyl-3-ethyl-6-[3-[2-(1-piperidinyl)ethoxy]phenyl]pyrazolo[3,4-d]pyrimidin-4-one]	ED25 [1]: 12.5 mg/kg; change in vivo at 10 mg/kg ([1]; 5 minutes after dose): -19%
540 nM			CCc1nn(C2CCCC2)c2nc(-c3cccc(OCCN(C)C)c3)[nH]c(=O)c12 [23 (c)]	
200 nM			CCc1[nH]n(C2CCCC2)c2nc(-c3ccccc3C)nc(=O)c1-2 [Example 3, 1-cyclopentyl-3-ethyl-6-(2-methylphenyl)-pyrazolo[3,4-d]pyrimidin-4-one]	change in vivo at 1 mg/kg ([1]; 5 minutes after dose): -7%
370 nM			CCc1[nH]n(C2CCCC2)c2nc(-c3ccc(OCCN4CCOCC4)cc3)nc(=O)c1-2 [18 (b), 1-cyclopentyl-3-ethyl-6-[4-[2-(4-morpholinyl)ethoxy]phenyl]pyrazolo[3,4-d]pyrimidin-4-one]	
140 nM			CCc1[nH]n(C2CCCC2)c2nc(-c3cccc(OCCN4CCCC4)c3)nc(=O)c1-2 [22 (b), 1-cyclopentyl-3-ethyl-6-[3-[2-(1-pyrrolidinyl)ethoxy]phenyl]pyrazolo[3,4-d]pyrimidin-4-one]	ED25 [1]: 17.9 mg/kg; change in vivo at 10 mg/kg ([1]; 5 minutes after dose): -18%
5.8 nM			CCOc1ccccc1-c1nc2n(C3CCCC3)[nH]c(CC)c-2c(=O)n1 [Example 4, 1-cyclopentyl-3-ethyl-6-(2-ethoxyphenyl)-pyrazolo[3,4-d]pyrimidin-4-one]	change in vivo at 10 mg/kg ([1]; 5 minutes after dose): -13%
		28%	CCc1[nH]n(C2CCCC2)c2nc(-c3ccccc3OCCCN3CCOCC3)nc(=O)c1-2 [26 (c), 1-cyclopentyl-3-ethyl-6-[2-[3-(4-morpholinyl)propoxy]phenyl]pyrazolo[3,4-d]pyrimidin-4-one]	
	9%	53%	CCc1[nH]n(C2CCCC2)c2nc(-c3ccc(Cl)cc3O)nc(=O)c1-2 [Example 30, 1-cyclopentyl-3-ethyl-6-(4-chloro-2-hydroxyphenyl)pyrazolo[3,4-d]pyrimidin-4-one]	
7 nM and 3 nM			CCCOc1ccccc1-c1nc2n(C3CCCC3)[nH]c(C)c-2c(=O)n1 [1 (c), 1-cyclopentyl-3-methyl-6-(2-propoxyphenyl)-pyrazolo[3,4-d]pyrimidin-4-one]	change in vivo at 1 mg/kg ([1]; 5 minutes after dose): -5%
			1-cyclopentyl-3-ethyl-6-[2-methyl-2,3-dihydrobenzo[b]furan-5-yl]pyrazolo[3,4-d]pyrimidin-4-one [Example 39]	Percent Inhibition cGMP-PDE V (cGMP-PDE V; 0.01 μM): 24%; Percent Inhibition cGMP-PDE V (cGMP-PDE V; 0.1 μM): 65%
	29%	56%	CCc1[nH]n(C2CCCC2)c2nc(-c3cccc(O)c3)nc(=O)c1-2 [Example 44, 1-cyclopentyl-3-ethyl-6-(3-hydroxyphenyl)pyrazolo[3,4-d]pyrimidin-4-one]	
94 nM			CCOC(=O)COc1cccc(-c2nc3n(C4CCCC4)[nH]c(CC)c-3c(=O)n2)c1 [20 (b), 1-cyclopentyl-3-ethyl-6-[3-(ethoxycarbonylmethoxy)phenyl]pyrazolo[3,4-d]pyrimidin-4-one]	
810 nM			CCc1nn(C2CCCC2)c2nc(-c3ccc(OCC(=O)O)cc3OC)[nH]c(=O)c12 [Example 14, 1-cyclopentyl-3-ethyl-6-[(2-methoxy-4-carboxymethoxy)phenyl]pyrazolo[3,4-d]pyrimidin-4-one]	
	56%		CCc1[nH]n(C2CCCC2)c2nc(-c3cccc(OCc4ccncc4)c3)nc(=O)c1-2 [42 (c), 1-cyclopentyl-3-ethyl-6-[3-[4-pyridinylmethoxy]phenyl]pyrazolo[3,4-d]pyrimidin-4-one]	inhibition at 0.01 µM (cGMP-PDE V; 0.01 μM): 25%
250 nM			CCc1[nH]n(C2CCCC2)c2nc(-c3ccccc3)nc(=O)c1-2 [Example 2, 1-cyclopentyl-3-ethyl-6-phenyl-pyrazolo[3,4-d]pyrimidin-4-one]	
		20%	CCc1[nH]n(C2CCCC2)c2nc(-c3ccccc3O)nc(=O)c1-2 [Example 7, 1-cyclopentyl-3-ethyl-6-(2-hydroxyphenyl)pyrazolo[3,4-d]pyrimidin-4-one]	inhibition at 10 µM (cGMP-PDE V): 51%
	63%		CCc1[nH]n(C2CCCC2)c2nc(-c3cc(OCCN4CCOCC4)cc(OCCN4CCOCC4)c3)nc(=O)c1-2 [38 (b), 1-cyclopentyl-3-ethyl-6-[3,5-di[2-(4-morpholinyl)ethoxy]phenyl]pyrazolo[3,4-d]pyrimidin-4-one]	inhibition at 0.01 µM (cGMP-PDE V; 0.01 μM): 11%
	58%		CCc1[nH]n(C2CCCC2)c2nc(-c3ccc(OC)c(OCCN4CCOCC4)c3)nc(=O)c1-2 [35 (b), 1-cyclopentyl-3-ethyl-6-[4-methoxy-3-[2-(4-morpholinyl)ethoxy]phenyl]pyrazolo[3,4-d]pyrimidin-4-one]	inhibition at 0.01 µM (cGMP-PDE V; 0.01 μM): 13%
	47%	74%	CCc1[nH]n(C2CCCC2)c2nc(-c3cccc(OCC(=O)N4CCOCC4)c3)nc(=O)c1-2 [40 (d), 1-cyclopentyl-3-ethyl-6-[3-(4-morpholinylcarbonylmethoxy)-phenyl]pyrazolo[3,4-d]pyrimidin-4-one]	
			O=[N+]([O-])OCC(CO[N+](=O)[O-])O[N+](=O)[O-] [nitroglycerin, reference compound]	hypotensive response to nitroglycerin challenge, tolerant vehicle pretreated group (in words) [2]: significant reduction of the hypotensive response
		15%	CCc1[nH]n(C2CCCC2)c2nc(-c3ccc(OCCCN(C)C)cc3)nc(=O)c1-2 [Example 10, 1-cyclopentyl-3-ethyl-6-[4-[3-(dimethylamino)propoxy]phenyl]pyrazolo[3,4-d]pyrimidin-4-one]	inhibition at 10 µM (cGMP-PDE V): 85%
4.9 nM			C=CCOc1ccccc1-c1nc2c(c(CC)nn2C2CCCC2)c(=O)[nH]1 [9 (b), 1-cyclopentyl-3-ethyl-6-[2-(CH2 =CH--CH2 O)phenyl]pyrazolo[3,4-d]pyrimidin-4-one]	change in vivo at 10 mg/kg ([1]; 5 minutes after dose): -19%
2700 nM and 4500 nM			CCc1[nH]n(C2CCCC2)c2nc(-c3ccccc3OCCN3CCOCC3)nc(=O)c1-2 [11 (c), 1-cyclopentyl-3-ethyl-6-[2-[2-(4-morpholinyl)ethoxy]phenyl]pyrazolo[3,4-d]pyrimidin-4-one monohydrochloride]	
	21%	56%	CCc1[nH]n(C2CCCC2)c2nc(-c3ccc(NS(C)(=O)=O)cc3)nc(=O)c1-2 [Example 33, 1-cyclopentyl-3-ethyl-6-[4-(methylsulfonylamino)phenyl]pyrazolo[3,4-d]pyrimidin-4-one]	

Compound	IC50 (cGMP-PDE V)	inhibition at 0.1 µM (cGMP-PDE V; 0.1 μM)	inhibition at 1 µM (cGMP-PDE V)	further results
CCc1nn(C2CCCC2)c2nc(-c3ccc(-n4ccnc4)cc3)[nH]c(=O)c12 [8 (b), 1-cyclopentyl-3-ethyl-6-[4-(1-imidazolyl)phenyl]pyrazole[3,4-d]pyrimidin-4-one]		32%	70%	
